Values after ≈ are worked out from the molar mass of the structure shown. Like-named read-outs stand apart in the source and are kept apart here.
How the values were obtained:
Assay in all cases: agar serial dilution MIC
Type in all cases: cell-based
[1] = test system: Bacillus subtilis (BA SU) 6633
Method: (§1) A stock solution of 7-[2-(4,5-dihydro-5-imino-1,3,4-thiadiazol-2-ylthio)acetamido]cephalosporanic acid as the hydrobromic acid addition salt containing 2,500 μg. of the active moiety is prepared in phosphate buffer. Two fold serial dilutions are prepared with phosphate buffer. One milliliter (ml.) quantities of each dilution are incorporated in 9 ml. seen agar in sterile Petri plates. The hardened surface is innoculated with test organisms using a Steers replicating device. The plates are incubated at 35° C. for 18 hours.
(§2) The test organisms are Bacillus subtilis (BA SU) 6633; Staphylococcus aureus (ST AU) 6538P, Smith CHP, and 3-180; Mycobacterium smegmatis (MY SM) 10143; Neisseria catarrhalis (NE CA) 8193; Pseudonomas aeruginosa (PS AE) 10145; Escherichia coli (ES CO) 9637, and 920; Escherichia intermedia (ES IN) 65-1; Salmonella paratyphi (SA PA) 11737; Enterobacter aerogenes (EN AE) 13048; Klebsiella pneumoniae (KL PN) 10031; Bordetella bronchiseptica (BO BR) 4617; Proteus vulgaris (PR VU) 6896; and Herellea species (HE SP) 9955. These organisms are grown for 18 hours in Brain heart infusion at 35° C. Prior to use the cultures are diluted 10 fold with the infusion, except in the case of Mycobacterium. The latter is grown in Emerson's broth for 5 days at 28° C. in shaker flasks and used undiluted.
(§3) A second preparation of 7-[2-(4,5-dihydro-5-imino-1,3,4-thiadiazol-2-ylthio)acetamido]cephalosporanic acid prepared as described in Example 1 is tested as described in Example 2. The minimum inhibitory concentrations obtained are as follows: […]

[2] = test system: Escherichia coli (ES CO) 9637
Method: as §1, §2, §3

[3] = test system: Staphylococcus aureus (ST AU) 3-180; conditions: 18 h
Method: as §1, §2, §3

[4] = test system: Proteus vulgaris (PR VU) 6896
Method: as §1, §2, §3

[5] = test system: Mycobacterium smegmatis (MY SM) 10143; conditions: Mycolicibacterium smegmatis
Method: as §1, §2, §3

[6] = test system: Pseudonomas aeruginosa (PS AE) 10145
Method: as §1, §2, §3

[7] = test system: Enterobacter aerogenes (EN AE) 13048; conditions: Klebsiella aerogenes
Method: as §1, §2, §3

[8] = test system: Escherichia intermedia (ES IN) 65-1; conditions: Citrobacter intermedius
Method: as §1, §2, §3

[9] = test system: Herellea species (HE SP) 9955
Method: as §1, §2, §3

[10] = test system: Bordetella bronchiseptica (BO BR) 4617; conditions: 18 h
Method: as §1, §2, §3

[11] = test system: Staphylococcus aureus (ST AU) CHP
Method: as §1, §2, §3

[12] = test system: Escherichia coli (ES CO) 920
Method: as §1, §2, §3

[13] = test system: Staphylococcus aureus (ST AU) 6538P
Method: as §1, §2, §3

[14] = test system: Neisseria catarrhalis (NE CA) 8193
Method: as §1, §2, §3

[15] = test system: Klebsiella pneumoniae (KL PN) 10031
Method: as §1, §2, §3

[16] = 18 h, second preparation (Example 3), read-out: minimum inhibitory concentration (MIC)
[17] = first preparation (Example 2), HBr salt, 35° C., 18 hours, read-out: minimum concentration (MIC) required to completely inhibit growth
[18] = read-out: minimum concentration (MIC) required to completely inhibit growth
[19] = second preparation (Example 3), read-out: minimum inhibitory concentration (MIC)

`CC(=O)OCC1=C(C(=O)O)N2C(=O)C(NC(=O)CSc3n[nH]c(=N)s3)C2SC1` (stereo not drawn) [7-[2-(4,5-Dihydro-5-Imino-1,3,4-Thiadiazol-2-ylthio)Acetamido]Cephalosporanic Acid] gave an MIC [1, 16] of 0.122 mg/L (≈ 0.274 µM), an MIC [1, 17] of 0.122 mg/L and an MIC [2, 16] of 31.3 mg/L (≈ 70.3 µM). It also gave an MIC [2, 17] of 7.81 mg/L, an MIC [3, 18] of 1.95 mg/L (≈ 4.38 µM) and an MIC [3, 19] of 3.9 mg/L (≈ 8.75 µM). The MIC [4, 16] was 3.9 mg/L (≈ 8.75 µM), the MIC [4, 17] was 15.6 mg/L and the MIC [5, 16] was greater than 250 mg/L. The MIC [5, 17] was greater than 250 mg/L, the MIC [6, 16] was greater than 250 mg/L and the MIC [6, 17] was greater than 250 mg/L. The MIC [7, 16] was greater than 250 mg/L, the MIC [7, 17] was greater than 250 mg/L and the MIC [8, 16] was greater than 250 mg/L. It also gave an MIC [8, 17] greater than 250 mg/L, an MIC [9, 16] greater than 250 mg/L and an MIC [9, 17] greater than 250 mg/L. It also gave an MIC [10, 18] of 7.81 mg/L (≈ 17.5 µM), an MIC [10, 19] of 3.9 mg/L (≈ 8.75 µM) and an MIC ([11]; 18 h, read-out: minimum inhibitory concentration (MIC)) of 1.95 mg/L (≈ 4.38 µM). The MIC [11, 17] was 0.976 mg/L, the MIC [12, 16] was 3.9 mg/L (≈ 8.75 µM) and the MIC [12, 17] was 15.6 mg/L. The MIC [13, 16] was 0.976 mg/L (≈ 2.19 µM), the MIC [13, 17] was 0.488 mg/L and the MIC [14, 16] was 62.5 mg/L (≈ 140 µM). It also gave an MIC [14, 17] of 31.3 mg/L, an MIC [15, 16] of 3.9 mg/L (≈ 8.75 µM) and an MIC [15, 17] of 3.9 mg/L.

Reference: US3971779A, “7-[2-(5-Amino-1,3,4-thiadiazol-2-ylthio)acetamido]cephalosporins” (American Home Products Corporation, priority 1975, dated 1976)
